Data taken from US20160287696A1, “PAN POLLEN IMMUNOGENS AND METHODS AND USES FOR IMMUNE RESPONSE MODULATION” (LA JOLLA INSTITUTE FOR ALLERGY AND IMMUNOLOGY, priority 2013, published 2016).

System: cultured PBMCs of the allergic donors
Assay: ELISPOT of IL-5 or IFNg production by cultured PBMCs of TG allergic donors in response to peptide
Type: cell-based, human
Details: for # Th+: Table 7, peptides per NTGA recognized by T cells of grass allergic donors (n=20); for No of PG+ & th+ peptides per NTGA / No of PP & Th+ peptides per NTGA: Table 6; for No of PG+ & th+ peptides per NTGA: PG+ peptides recognized by T cells of grass allergic donors (n=20); for No of PP & Th+ peptides per NTGA: PP peptides recognized by T cells of grass allergic donors (n=20)
From the text: Table 1 indicates for each of the 397 PG+ peptides in which non-grass pollen species a matching peptide with either less than 3, less than 2 or zero mismatches are found. The number of TG grass allergic donors (n=20) with an in vitro T cell response to the TG peptide sequence is also shown.
A set of 93 proteins from Timothy grass (TG) pollen and the assembly of 822 peptides (15 mers) predicted to promiscuously bind HLA class II molecules shown in Table 9 and the immune reactivity in allergic donors have been reported in PCT application WO 2013/119863. […] Immune reactivity was determined by the production of IL-5 or IFNg from cultured PBMCs of the allergic donors in response to stimulation with a peptide and IL-5 and IFNg were measured by ELISPOT as described in Oseroff C et al, 2010.
In short, T cell immune reactivity was determined using PBMCs isolated from study participants and stored in liquid nitrogen until further use. For experimental testing, PBMCs were thawed and expanded in vitro with TG pollen extract (50 μg/mL) or the peptide pool ([…]). The TG extract and peptide pools had each been previously titrated to determine optimal stimulation concentrations.
Cytokine production by cultured PBMCs in response to antigen stimulation was measured by ELISPOT. Cells (1×10^5 cells/well) were plated and incubated with peptide (10 μg/mL), the peptide pool (5 μg/mL), or the TG extract (50 μg/mL). Phytohaemagglutinin (10 μg/mL) and medium alone were used as positive and negative controls, respectively. Samples were considered to produce a cytokine if 100 spot-forming cells (SFCs)/10^6 PBMCs were detected, with P .05 and a stimulation index of 2 or more. Criteria for individual peptides were the same except that a minimum of 20 SFCs were required for a sample to be counted as positive.
Table 3 lists the 397 PG+ peptides and indicates for each non-grass pollen species whether a matching peptide with either less than 3, less than 2 or zero mismatches could be detected. The immune reactivity of the TG peptide was assessed as the number of TG grass allergic donors (n=20) having in vitro T cell response against the TG peptide.

Substance	# Th+	No of PG+ & th+ peptides per NTGA	No of PP & Th+ peptides per NTGA	NTGA's containing at least one T cell epitope, Th+ (Col 2) (NTGA number given = criterion met, TG allergic donors n=20)
12 (RAAVPSGASTGVYEA) [compound 12]	0			
85 (RVLSCDFKPTRPFRI) [compound 85]	0			
33 (DDGKVYLEMSYYFEI) [compound 33]	0	0	0	
44 (GATIRIYIEQYEKDS) [compound 44]	0	0	0	
69 (GINVPRSRFLPVKAT) [compound 69]	0	0	0	
5 (KLAMQEFMILPTGAS) [compound 5]	0	0	0	
25 (VLLGLLSVWNVSFLG) [compound 25]	0			
61 (ISYEGRVQLLEIAQV) [compound 61]	0			
42 (HQGIRYLFGDGSRLV) [compound 42]	0	1	1	42
